From PubChem BioAssay AID540332 (The Scripps Research Institute Molecular Screening Center, 2011)
Active and inactive are the calls of the source. The rule behind the calls is not given here.

Assays:
Experiment in all cases: selectivity profile across receptors and CYP450s – biochemical, Ricerca HitProfilingScreen, CYP450, set 2, selectivity assay for S1P4 agonist project, profiling panel (AID 540332)
[1] = tested on: Adenosine A1; details: at 30 µM; hits give high values
[2] = biological target: Cytochrome P450 2D6 (Homo sapiens) (UniProt P10635); details: CYP450 2D6; at 30 µM; hits give high values
[3] = biological target: Voltage-gated inwardly rectifying potassium channel KCNH2 (Homo sapiens) (UniProt Q12809); details: Potassium Channel hERG; at 30 µM; hits give high values
[4] = tested on: Opiate mu (OP3, MOP); details: at 30 µM; hits give high values
[5] = tested on: GABAA; details: Central, at 30 µM, hits give high values
[6] = tested on: Dopamine D2; details: at 30 µM; hits give high values
[7] = biological target: Muscarinic acetylcholine receptor M2 (Homo sapiens) (UniProt P08172); details: at 30 µM, hits give high values
[8] = tested on: Adenosine A2A; details: at 30 µM; hits give high values
[9] = biological target: 5-hydroxytryptamine receptor 2B (Homo sapiens) (UniProt P41595); details: Serotonin (5-Hydroxytryptamine) 5-HT2B; at 30 µM; hits give high values
[10] = tested on: Sigma 1; details: at 30 µM; hits give high values
[11] = tested on: Alpha-2A adrenergic receptor (Homo sapiens) + Histamine H1 receptor (Homo sapiens) + Mu-type opioid receptor (Homo sapiens); details: at 30 µM; hits give high values
[12] = biological target: Cytochrome P450 3A4 (Homo sapiens) (UniProt P08684); details: CYP450 3A4; at 30 µM; hits give high values
[13] = tested on: Prostanoid EP4; details: at 30 µM; hits give high values
[14] = tested on: Sodium Channel, Site 2; details: at 30 µM; hits give high values
[15] = tested on: Adrenergic alpha1A; details: at 30 µM; hits give high values
[16] = tested on: Nicotinic Acetylcholine; details: at 30 µM; hits give high values
[17] = biological target: Alpha-2A adrenergic receptor (Homo sapiens) (UniProt P08913); details: Adrenergic alpha2A; at 30 µM; hits give high values
[18] = biological target: Cytochrome P450 2C9 (Homo sapiens) (UniProt P11712); details: CYP450 2C9; at 30 µM; hits give high values
[19] = tested on: Adrenergic beta1; details: at 30 µM; hits give high values
[20] = biological target: Muscarinic acetylcholine receptor M3 (Homo sapiens) (UniProt P20309); details: at 30 µM, hits give high values
[21] = tested on: Cannabinoid CB1; details: at 30 µM; hits give high values
[22] = tested on: Histamine H1; details: at 30 µM; hits give high values
[23] = tested on: CYP450 2C19; details: at 30 µM; hits give high values
[24] = tested on: Norepinephrine Transporter (NET); details: at 30 µM; hits give high values
[25] = tested on: Adrenergic alpha1B; details: at 30 µM; hits give high values
[26] = biological target: D(1A) dopamine receptor (Homo sapiens) (UniProt P21728); details: Dopamine D1; at 30 µM; hits give high values
[27] = tested on: Calcium Channel L-Type, Dihydropyridine; details: at 30 µM; hits give high values
[28] = tested on: Glutamate, NMDA; details: Phencyclidine; at 30 µM; hits give high values
[29] = biological target: Cytochrome P450 1A2 (Homo sapiens) (UniProt P05177); details: CYP450 1A2; at 30 µM; hits give high values
[30] = biological target: Beta-2 adrenergic receptor (Homo sapiens) (UniProt P07550); details: Adrenergic beta2; at 30 µM; hits give high values

Sequence of Voltage-gated inwardly rectifying potassium channel KCNH2 (Homo sapiens) (Q12809 whole entry, looked up): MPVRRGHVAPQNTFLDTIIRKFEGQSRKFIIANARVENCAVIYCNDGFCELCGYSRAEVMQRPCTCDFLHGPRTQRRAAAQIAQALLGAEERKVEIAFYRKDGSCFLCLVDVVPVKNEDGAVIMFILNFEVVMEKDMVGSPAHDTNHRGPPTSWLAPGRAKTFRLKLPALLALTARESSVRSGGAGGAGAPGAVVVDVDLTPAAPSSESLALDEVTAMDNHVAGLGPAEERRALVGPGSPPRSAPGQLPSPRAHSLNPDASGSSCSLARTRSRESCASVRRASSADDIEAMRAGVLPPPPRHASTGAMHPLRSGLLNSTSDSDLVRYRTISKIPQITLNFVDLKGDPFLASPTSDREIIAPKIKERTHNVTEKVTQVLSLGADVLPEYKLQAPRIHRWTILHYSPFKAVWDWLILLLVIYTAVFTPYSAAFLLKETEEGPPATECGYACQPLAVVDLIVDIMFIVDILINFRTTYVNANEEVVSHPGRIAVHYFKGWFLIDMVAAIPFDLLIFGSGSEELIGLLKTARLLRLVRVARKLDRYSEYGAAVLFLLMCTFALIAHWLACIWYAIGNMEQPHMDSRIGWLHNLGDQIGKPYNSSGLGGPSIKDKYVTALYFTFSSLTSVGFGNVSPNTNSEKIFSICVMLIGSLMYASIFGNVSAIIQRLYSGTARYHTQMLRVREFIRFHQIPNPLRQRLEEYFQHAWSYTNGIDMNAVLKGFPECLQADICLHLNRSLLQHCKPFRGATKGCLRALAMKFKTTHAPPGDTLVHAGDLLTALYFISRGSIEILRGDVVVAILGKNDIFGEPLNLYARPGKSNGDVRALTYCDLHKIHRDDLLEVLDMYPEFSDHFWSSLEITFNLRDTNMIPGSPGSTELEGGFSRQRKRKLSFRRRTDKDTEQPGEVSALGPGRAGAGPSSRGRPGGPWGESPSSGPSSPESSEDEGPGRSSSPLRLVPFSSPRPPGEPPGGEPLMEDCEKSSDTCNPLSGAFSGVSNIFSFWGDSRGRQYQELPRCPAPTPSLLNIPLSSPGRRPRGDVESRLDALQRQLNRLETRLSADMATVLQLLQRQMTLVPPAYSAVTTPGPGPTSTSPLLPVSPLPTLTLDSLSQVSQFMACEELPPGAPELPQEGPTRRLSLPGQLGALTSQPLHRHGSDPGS
Sequence of D(1A) dopamine receptor (Homo sapiens) (P21728 whole entry, looked up): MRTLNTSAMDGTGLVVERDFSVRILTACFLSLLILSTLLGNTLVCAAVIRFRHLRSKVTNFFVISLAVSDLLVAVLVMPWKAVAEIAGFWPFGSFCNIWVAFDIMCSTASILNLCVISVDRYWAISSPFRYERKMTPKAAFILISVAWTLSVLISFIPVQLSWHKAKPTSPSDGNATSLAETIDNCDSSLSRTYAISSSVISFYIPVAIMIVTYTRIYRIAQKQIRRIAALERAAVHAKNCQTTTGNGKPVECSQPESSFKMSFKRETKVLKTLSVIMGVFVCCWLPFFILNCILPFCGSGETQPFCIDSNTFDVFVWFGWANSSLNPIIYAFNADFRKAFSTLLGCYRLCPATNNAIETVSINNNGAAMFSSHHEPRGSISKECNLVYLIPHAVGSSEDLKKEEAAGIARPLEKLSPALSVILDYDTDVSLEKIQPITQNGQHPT
Sequence of Muscarinic acetylcholine receptor M2 (Homo sapiens) (P08172 whole entry, looked up): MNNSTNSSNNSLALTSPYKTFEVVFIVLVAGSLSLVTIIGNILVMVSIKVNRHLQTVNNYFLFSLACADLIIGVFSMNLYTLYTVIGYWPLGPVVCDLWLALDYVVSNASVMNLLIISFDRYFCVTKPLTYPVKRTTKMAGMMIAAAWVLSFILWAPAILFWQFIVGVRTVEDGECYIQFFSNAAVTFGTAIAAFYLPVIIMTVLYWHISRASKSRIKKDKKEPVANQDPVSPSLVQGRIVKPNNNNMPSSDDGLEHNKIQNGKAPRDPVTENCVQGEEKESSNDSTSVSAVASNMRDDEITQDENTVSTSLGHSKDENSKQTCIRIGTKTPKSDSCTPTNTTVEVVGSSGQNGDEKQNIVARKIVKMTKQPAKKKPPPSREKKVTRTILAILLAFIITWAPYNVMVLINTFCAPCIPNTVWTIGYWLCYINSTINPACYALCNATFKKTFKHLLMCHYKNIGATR
Sequence of Cytochrome P450 2D6 (Homo sapiens) (P10635 whole entry, looked up): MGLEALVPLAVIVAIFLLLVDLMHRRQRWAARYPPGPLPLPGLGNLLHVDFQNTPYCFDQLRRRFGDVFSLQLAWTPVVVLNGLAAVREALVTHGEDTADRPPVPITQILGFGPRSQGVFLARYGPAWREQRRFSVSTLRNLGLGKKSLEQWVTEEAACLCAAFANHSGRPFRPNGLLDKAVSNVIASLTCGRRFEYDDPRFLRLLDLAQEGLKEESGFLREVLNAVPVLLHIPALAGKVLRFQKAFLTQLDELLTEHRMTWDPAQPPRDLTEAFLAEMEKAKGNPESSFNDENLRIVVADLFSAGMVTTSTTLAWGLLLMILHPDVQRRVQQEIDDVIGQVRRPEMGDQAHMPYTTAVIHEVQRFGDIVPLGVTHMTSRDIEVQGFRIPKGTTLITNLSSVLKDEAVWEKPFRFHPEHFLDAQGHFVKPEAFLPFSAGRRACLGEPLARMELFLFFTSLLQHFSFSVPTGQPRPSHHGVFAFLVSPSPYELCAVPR
Sequence of Cytochrome P450 1A2 (Homo sapiens) (P05177 whole entry, looked up): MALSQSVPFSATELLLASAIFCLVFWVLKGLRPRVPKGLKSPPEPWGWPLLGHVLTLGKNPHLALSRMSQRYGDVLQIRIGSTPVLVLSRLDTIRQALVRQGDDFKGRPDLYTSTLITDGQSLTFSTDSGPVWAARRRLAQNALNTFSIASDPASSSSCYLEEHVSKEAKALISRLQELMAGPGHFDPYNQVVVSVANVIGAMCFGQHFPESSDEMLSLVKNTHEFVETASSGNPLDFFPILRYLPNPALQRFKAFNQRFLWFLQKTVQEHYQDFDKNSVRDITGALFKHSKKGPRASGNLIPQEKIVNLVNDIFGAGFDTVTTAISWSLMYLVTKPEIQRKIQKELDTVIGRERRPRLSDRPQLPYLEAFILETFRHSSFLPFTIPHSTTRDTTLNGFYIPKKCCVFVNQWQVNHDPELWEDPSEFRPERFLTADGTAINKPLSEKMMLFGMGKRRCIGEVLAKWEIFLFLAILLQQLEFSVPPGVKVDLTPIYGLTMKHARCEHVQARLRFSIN
Sequence of Muscarinic acetylcholine receptor M3 (Homo sapiens) (P20309 whole entry, looked up): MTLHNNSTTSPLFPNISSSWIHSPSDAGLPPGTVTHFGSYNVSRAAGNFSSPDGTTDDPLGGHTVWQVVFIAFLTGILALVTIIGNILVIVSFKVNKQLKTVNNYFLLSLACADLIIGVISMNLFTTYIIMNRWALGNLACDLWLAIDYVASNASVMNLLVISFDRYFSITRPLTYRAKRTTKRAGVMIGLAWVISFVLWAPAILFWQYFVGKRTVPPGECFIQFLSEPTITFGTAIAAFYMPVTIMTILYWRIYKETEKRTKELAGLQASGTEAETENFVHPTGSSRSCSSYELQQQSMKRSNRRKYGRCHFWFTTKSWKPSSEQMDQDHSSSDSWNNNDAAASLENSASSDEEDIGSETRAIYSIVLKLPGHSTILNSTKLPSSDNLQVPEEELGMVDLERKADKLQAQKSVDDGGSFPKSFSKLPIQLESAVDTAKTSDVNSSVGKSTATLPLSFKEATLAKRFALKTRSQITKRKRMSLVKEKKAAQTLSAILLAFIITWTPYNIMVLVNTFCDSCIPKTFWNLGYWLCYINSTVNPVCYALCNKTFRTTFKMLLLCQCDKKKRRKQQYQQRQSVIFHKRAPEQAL
Sequence of Cytochrome P450 2C9 (Homo sapiens) (P11712 whole entry, looked up): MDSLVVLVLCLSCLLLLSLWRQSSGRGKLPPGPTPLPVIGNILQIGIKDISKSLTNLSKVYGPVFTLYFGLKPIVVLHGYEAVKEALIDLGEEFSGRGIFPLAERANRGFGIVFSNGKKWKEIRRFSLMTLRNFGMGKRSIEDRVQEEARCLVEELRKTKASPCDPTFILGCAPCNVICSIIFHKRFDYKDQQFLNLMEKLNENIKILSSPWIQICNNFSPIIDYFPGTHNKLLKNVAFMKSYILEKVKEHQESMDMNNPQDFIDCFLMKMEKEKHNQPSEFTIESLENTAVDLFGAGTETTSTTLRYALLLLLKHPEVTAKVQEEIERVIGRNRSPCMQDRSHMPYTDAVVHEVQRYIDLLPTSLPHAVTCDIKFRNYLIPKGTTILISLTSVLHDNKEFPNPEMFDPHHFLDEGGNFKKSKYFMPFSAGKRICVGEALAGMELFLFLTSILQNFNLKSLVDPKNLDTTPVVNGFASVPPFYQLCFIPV
Sequence of Cytochrome P450 3A4 (Homo sapiens) (P08684 whole entry, looked up): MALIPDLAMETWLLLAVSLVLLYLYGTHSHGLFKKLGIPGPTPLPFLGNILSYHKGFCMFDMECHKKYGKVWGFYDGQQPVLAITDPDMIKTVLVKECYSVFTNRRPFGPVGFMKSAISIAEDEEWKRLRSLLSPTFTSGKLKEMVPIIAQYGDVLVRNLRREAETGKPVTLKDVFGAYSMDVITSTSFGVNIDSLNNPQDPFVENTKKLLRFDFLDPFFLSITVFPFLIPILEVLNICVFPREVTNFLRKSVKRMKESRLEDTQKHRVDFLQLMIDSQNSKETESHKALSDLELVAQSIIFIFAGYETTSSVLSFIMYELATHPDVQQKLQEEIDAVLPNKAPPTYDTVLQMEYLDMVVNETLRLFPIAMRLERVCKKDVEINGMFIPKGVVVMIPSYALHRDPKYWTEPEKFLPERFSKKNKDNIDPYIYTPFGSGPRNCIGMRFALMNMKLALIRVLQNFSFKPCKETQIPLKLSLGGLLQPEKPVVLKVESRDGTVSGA

## COCCN=C1S/C(=C\c2cc(C)n(-c3ccc(F)cc3F)c2C)C(=O)N1C
[1]
  inhibition: 29% (inactive)
[2]
  inhibition: 8% (inactive)
[3]
  inhibition: 29% (inactive)
[4]
  inhibition: 69%
[5]; Flunitrazepam
  inhibition: -8% (inactive)
[5]; Muscimol
  inhibition: 3% (inactive)
[6]
  inhibition: 12% (inactive)
[7]
  inhibition: 13% (inactive)
[8]
  inhibition: 26% (inactive)
[9]
  inhibition: 66%
[10]
  inhibition: 2% (inactive)
[11]
  inhibition: 11% (inactive)
[12]
  inhibition: 56%
[13]
  inhibition: 29% (inactive)
[14]
  inhibition: 59%
[15]
  inhibition: 40% (inactive)
[16]
  inhibition: -53%
[17]
  inhibition: 40% (inactive)
[18]
  inhibition: -28% (inactive)
[19]
  inhibition: 39% (inactive)
[20]
  inhibition: 23% (inactive)
[21]
  inhibition: 65%
[22]
  inhibition: 52%
[23]
  inhibition: -24% (inactive)
[24]
  inhibition: 71%
[25]
  inhibition: 42% (inactive)
[26]
  inhibition: 27% (inactive)
[27]
  inhibition: 64%
[28]
  inhibition: 6% (inactive)
[29]
  inhibition: 14% (inactive)
[30]
  inhibition: 6% (inactive)
